Results from patent publication US7794712B2, “Production of mutant strain of Aspergillus fumigatus, method of assay for inhibiting siderophore biosynthesis and diagnostic method for detecting likely Aspergillus fumigatus infection” (priority 2004, dated 2010).
Several values for one entry are separate records, joined by “and”; a condition that tells them apart may be missing. Identical values can stand only once. Non-standard residues stand in square brackets, D forms with d. Residues, ends and D or L forms follow the SMILES beside them. ξ: configuration not given here. Orn(N5-OH,N5-Ac) = CC(=O)N(O)CCC[C@H](N)C(=O)O; ξOrn(N(OH)Ac) = CC(=O)N(O)CCCC(N)C(=O)O

Assays:
A. fumigatus ATCC 13073 = experiment: Growth of A. fumigatus in MEM made iron limiting with 2,2′-dipyridyl; type: cell-based, Aspergillus fumigatus; details: MEM (5 ml) with 250 μM 2,2′-dipyridyl; holo-/apotransferrin 25 μM, FeCl3 50 μM
Description: The inventors have shown that holotransferrin but not apotransferrin supports the growth of A. fumigatus in iron-depleted medium. MEM was made iron limiting by the addition of the iron-chelator 2,2′-dipyridyl.

human holotransferrin = human holotransferrin (Homo sapiens, UniProt P02787); type: biochemical; details: for Affinity of iron removal from holotransferrin: compared with ferrichrome; for Concentration able to remove some iron from holotransferrin / Concentration at which complete absence of holotransferrin was observed: holotransferrin 25 μM, 16 h, 37° C., pH 7.4
Description: Purified desferri-siderophores and commercially available ferrichrome were serially diluted to final concentrations of 2.5 mM, 250 μM, 25 μM, 2.5 μM and 250 nM (lanes 1-5, respectively). Siderophores were incubated with 12.5 μM human holo-Tf at 37 degrees for 16 hours. Iron saturation of transferrin was assessed by urea-PAGE (13).
Holotransferrin also was incubated with commercially available desferriferrichrome for comparison. The iron saturation of transferrin was monitored by urea-PAGE. Desferritriacetylfusarinine C, desferriferricrocin, and desferriferrichrome were diluted to concentrations ranging from 5 mM to 5 μM and incubated with holotransferrin (25 μM) in 50 mM Tris-150 mM NaCl-20 mM NaHCO3 (pH 7.4) buffer for 16 h at 37° C. The extent of iron saturation of transferrin at the end of the incubation period was determined by urea-PAGE.

[1] = system: A. fumigatus wild type (ATCC 13073); experiment: Growth (dry weight) in supplemented GA medium, parental / wild type strain; type: cell-based, Aspergillus fumigatus
Description: (§1) In this example the growth of various strains of A. fumigatus was monitored as follows. In a first experiment, A. fumigatus was inoculated into 5 ml volumes of YG medium or 5 ml of modified Grimm-Allen (GA) medium (1 g/L KHSO4, 3 g/L K2HPO4, 3 g/L (NH4)SO4, 20 g/L sucrose, 1 g/L citric acid, 2 mg/L thiamine, 20 μg/L CuSO4, 1 mg/L MnSO4, 5.5 mg/L ZnSO4, 810 mg/L MgSO4, pH 6.9) in 25 ml acid-washed flasks at a concentration of […]. GA medium was supplemented with […] FeCl3 where described. Human serum (male) was obtained from Sigma, stored frozen until use and added to media at a concentration of 10%. DesferriTAF and desferriferricrocin were purified from A. fumigatus cultures as described above and treated with 8-hydroxyquinoline to remove all bound iron. Siderophore solutions were filter-sterilized prior to addition to media.
(§2) In a second experiment, A. fumigatus was innoculated into 1 ml volumes of YM medium or 1 ml of the modified GA medium described above.
(§3) Alternatively, dry weights were measured by filtering the contents of each tube through pre-weighed, pre-dried Whatman #1 filters and rinsing thoroughly with distilled water. Filters were oven-dried and re-weighed.

A. fumigatus ΔsidA = experiment: Growth (dry weight) in supplemented GA medium, ΔsidA strain; type: cell-based, Aspergillus fumigatus; details: for Restoration of growth of ΔsidA in the presence of human serum: 50 μM siderophore
Description: as §1, §2, §3

A. fumigatus ΔsidA^R = experiment: Growth (dry weight) in supplemented GA medium, rescued strain ΔsidA^R; type: cell-based, Aspergillus fumigatus
Description: as §1, §2, §3

A. fumigatus 13073 = experiment: Siderophore secretion inhibitor assay (A440 after FeCl3 addition); type: cell-based, Aspergillus fumigatus; details: 3 days
Description: In this example 96-well sterile polystyrene filter plates as described above with white Duropore membranes at the base of the plate (Millipore) were used. The plates include a thick plastic layer under the wells, which has a one-way valve function that directs fluid into a receiving 96-well plate when the filter plate is subjected to a vacuum manifold or a centrifugal force. This layer can be peeled off if the membranes are to be sampled (punched) later.
Cultures were set up in the filter plates, with controls and inhibitors to be tested. After inclubation, culture fluid was pulled into a 96-well receiver plate, using the Beckman centrifuge and a JS 5.3 rotor designed to take 96-well plates. FeCl3 was added to the receiver plates, and A430 (general siderophores) or A440 (max for TAF) was read. Growth was scored in the plate by reading A600.
To test this method, different antibiotics were used to show inhibition of siderophore production by A. fumigatus 13073, as no inhibitors for the SidA gene product are currently known. Suitable ranges of concentrations of amphotericin B (fungizone), hygromycin, and nystatin were calculated based on the literature. Spores were harvested from A. fumigatus 13073 into PBS Tween, then washed once with PBS and counted. They were then diluted into Neilands' medium (without citrate) to give solutions of 2×10^5 and 2×10^6/ml. 100 μl of 2× spores and 100 μl of 2× antibiotics to yield a volume of 200 μl of Neilands' medium in each well, with the desired final concentrations of spores, 10^5 or 10^6/ml.
Antibiotics were prepared as follows. Amphotericin B came as a liquid solution, 250 µg/ml. […] Therefore 0, 0.125, 0.25, 0.5, 1 and […] final concentration was used. Nystatin was stored it in ˜1 mg dry aliquots at −20 C, and was prepared at a concentration of 2 mg/ml in DMSO for dilution into Neilands' media. According to reported information, nystatin should be effective at 1.5 to 6.5 µg/ml; therefore, 0, 0.5, 1, 5, 10 and 50 µg/ml were used as the final concentrations. Hygromycin gold stock was in solution at 100 mg/ml, and 0, 25, 50, 100, 150 and 200 µg/ml were used as the final concentrations in Neilands' medium. Plates were incubated for 3 days at 37° C. with shaking.
To test for siderophores, 20 μL of a solution of 2 mM FeCl3 in 10 mM HCl was added to each well in the receiver plates and the A440 was recorded on a plate reader. […] An increase in A440 indicates a more intense orange-red colour that develops in the presence of ferrated siderophores. […] Because 3-day incubation produces conidia, shorter incubation periods may be preferable.
Three identical plates were set up: one filter plate and two sterile clear 96-well plates. The clear plates were used to score growth, and the filter plate was used to detect siderophores. Columns 1-6 contained Neilands' medium without citrate and amphotericin 0-2 at g/ml. Columns 7-12 contained Neilands' medium with citrate and amphotericin at […]. The rows were set up with A. fumigatus as described above, but two sets of each were set up to be in the two plates. The spores from the previous experiment were stored at −20° C. in PBS, in siliconized tubes, at 2×10^8 conidia/ml, to facilitate these experiments. Plates were incubated for 48 hours at 37° C. without shaking.
The filter plate was centrifuged at 1000×g for 10 minutes and the liquids caught in a clear non-sterile plate, to which FeCl3 was added. The plate was allowed to sit and develop orange colour, and was then read at 440 nm. The clear plates (one without Fe and one with Fe added to growth medium from the beginning) were read at 600 nm (A600). In the result, iron enhanced conidiation. Some wells of the filter plate were lightly conidiated and would not drain. These were hand pipetted.

[2] = 1 ml GA + 5 μM FeCl3 + 10% serum, 50 μM desferri-TAF or desferri-ferricrocin, 4 days
[3] = 1 ml GA, 96 hours, FeCl3 5 μM or ferrated TAF 10 μM
[4] = 5 ml GA medium, 4 days 37° C., 5 μM FeCl3 or 10 μM TAF
[5] = GA + FeCl3 + 10% human serum, desferrisiderophore 50 μM
[6] = 1 ml GA, 4 days 37° C., 5 μM FeCl3

Sequence of human holotransferrin (P02787 20-698): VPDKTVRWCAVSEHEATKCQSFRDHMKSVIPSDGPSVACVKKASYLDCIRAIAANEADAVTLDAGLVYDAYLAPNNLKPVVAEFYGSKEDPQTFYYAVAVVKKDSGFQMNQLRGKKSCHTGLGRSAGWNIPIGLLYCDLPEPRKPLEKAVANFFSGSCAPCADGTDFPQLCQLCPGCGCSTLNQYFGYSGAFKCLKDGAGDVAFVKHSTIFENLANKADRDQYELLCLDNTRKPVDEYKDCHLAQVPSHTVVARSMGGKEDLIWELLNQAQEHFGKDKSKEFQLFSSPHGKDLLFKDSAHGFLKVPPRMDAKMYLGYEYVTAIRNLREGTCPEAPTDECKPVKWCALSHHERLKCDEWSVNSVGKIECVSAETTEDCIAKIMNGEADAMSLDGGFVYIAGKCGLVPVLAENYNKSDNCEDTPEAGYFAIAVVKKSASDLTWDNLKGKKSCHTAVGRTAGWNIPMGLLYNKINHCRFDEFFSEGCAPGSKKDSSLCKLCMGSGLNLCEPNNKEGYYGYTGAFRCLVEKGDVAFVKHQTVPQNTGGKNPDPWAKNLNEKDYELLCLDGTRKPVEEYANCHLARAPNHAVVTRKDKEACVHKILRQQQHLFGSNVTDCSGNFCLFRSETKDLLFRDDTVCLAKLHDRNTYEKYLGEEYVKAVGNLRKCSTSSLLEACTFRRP

Compound: Holotransferrin: purified human iron-saturated transferrin
- Mean mycelial dry wt after 96 h (A. fumigatus ATCC 13073): 1.30^1 mg

Compound: CC(=O)NC1CCCN(O)C(=O)/C=C(/C)CCOC(=O)C(NC(C)=O)CCCN(O)C(=O)/C=C(/C)CCOC(=O)C(NC(C)=O)CCCN(O)C(=O)/C=C(/C)CCOC1=O (stereo not drawn) [TAF, N′,N″,N′″-triacetylfusarinine C]
- Affinity of iron removal from holotransferrin (human holotransferrin): comparable to that of ferrichrome
- dry weight, parental [1, 2]: 9.7^1 mg
- Growth (mg dry weight) mean ± S.D., wild type [1, 3]: 6.2 ± 0.5 mg dry weight
- dry weight, parental [1, 4]: 41^1 mg
- dry weight, ΔsidA (A. fumigatus ΔsidA; [2]): 7.2^1 mg
- Growth (mg dry weight) mean ± S.D., ΔsidA (A. fumigatus ΔsidA; [3]): 4.4 ± 1.5 mg dry weight
- dry weight, ΔsidA (A. fumigatus ΔsidA; [4]): 46^1 mg
- Growth (mg dry weight) mean ± S.D., ΔsidAR (A. fumigatus ΔsidA^R; [3]): 6.0 ± 0.1 mg dry weight
- Stability in human serum: stable in human serum

Compound: CC(=O)N([O-])CCC[C@@H]1NC(=O)CNC(=O)[C@H](CO)NC(=O)CNC(=O)[C@H](CCCN([O-])C(C)=O)NC(=O)[C@H](CCCN([O-])C(C)=O)NC1=O.[Fe+3] [ferricrocin] (cyclo(GSG[Orn(N5-OH,N5-Ac)][Orn(N5-OH,N5-Ac)][Orn(N5-OH,N5-Ac)]))
- Affinity of iron removal from holotransferrin (human holotransferrin): comparable to that of ferrichrome
- dry weight, parental [1, 2]: 11.1^1 mg
- dry weight, ΔsidA (A. fumigatus ΔsidA; [2]): 11.0^1 mg

Compound: C[C@@H]1[C@H](O)[C@@H](C)/C=C/C=C/CC/C=C/C=C/C=C/C=C/C(O[C@H]2O[C@H](C)[C@@H](O)[C@H](N)[C@@H]2O)CC2O[C@](O)(CC(O)C(O)CCC(O)CC(O)CC(O)CC(=O)O[C@H]1C)CC(O)C2C(=O)O (stereo partly drawn) [nystatin]
- A440 (ferrated siderophores) (A. fumigatus 13073; nystatin 0.5 μg/ml, 100000 spores/ml): 0.341 and 0.414 and 0.359
- A440 (ferrated siderophores) (A. fumigatus 13073; nystatin 0.5 μg/ml, 1000000 spores/ml): 0.416 and 0.382 and 0.232
- A440 (ferrated siderophores) (A. fumigatus 13073; nystatin 1 μg/ml, 100000 spores/ml): 0.340 and 0.31 and 0.325
- A440 (ferrated siderophores) (A. fumigatus 13073; nystatin 1 μg/ml, 1000000 spores/ml): 0.412 and 0.492 and 0.329
- A440 (ferrated siderophores) (A. fumigatus 13073; nystatin 5 μg/ml, 100000 spores/ml): 0.048 and 0.042 and 0.044
- A440 (ferrated siderophores) (A. fumigatus 13073; nystatin 5 μg/ml, 1000000 spores/ml): 0.042 and 0.043
- A440 (ferrated siderophores) (A. fumigatus 13073; nystatin 10 μg/ml, 100000 spores/ml): 0.043 and 0.045 and 0.042
- A440 (ferrated siderophores) (A. fumigatus 13073; nystatin 10 μg/ml, 1000000 spores/ml): 0.042 and 0.043 and 0.050
- A440 (ferrated siderophores) (A. fumigatus 13073; nystatin 50 μg/ml, 100000 spores/ml): 0.048 and 0.052 and 0.051
- A440 (ferrated siderophores) (A. fumigatus 13073; nystatin 50 μg/ml, 1000000 spores/ml): 0.048 and 0.051

Compound: CC(=O)NC1CCCN(O)C(=O)C=C(C)CCOC(=O)C(NC(C)=O)CCCN(O)C(=O)C=C(C)CCOC(=O)C(NC(C)=O)CCCN(O)C(=O)C=C(C)CCOC1=O (stereo not drawn) [desferri-TAF, Desferritriacetylfusarinine C]
- Concentration able to remove some iron from holotransferrin (human holotransferrin): 500 µM
- Concentration at which complete absence of holotransferrin was observed (human holotransferrin): 5 mM
- Growth (mg dry weight) mean ± S.D., wild type [1, 5]: 10.1 ± 0.4 mg dry weight
- Restoration of growth of ΔsidA in the presence of human serum (A. fumigatus ΔsidA): restored to wild-type levels
- Growth (mg dry weight) mean ± S.D., ΔsidA (A. fumigatus ΔsidA; [5]): 12.3 ± 1.2 mg dry weight
- Growth (mg dry weight) mean ± S.D., ΔsidAR (A. fumigatus ΔsidA^R; [5]): 11.3 ± 0.3 mg dry weight

Compound: Apotransferrin: iron-free human transferrin
- Mean mycelial dry wt after 96 h (A. fumigatus ATCC 13073): 0.02^1 mg

Compound: [Cl][Fe]([Cl])[Cl] [FeCl3]
- Mean mycelial dry wt after 96 h (A. fumigatus ATCC 13073): 0.80^1 mg
- dry weight, parental [1, 6]: 7.8^1 mg
- Growth (mg dry weight) mean ± S.D., wild type [1, 3]: 6.5 ± 0.4 mg dry weight
- dry weight, parental [1, 4]: 44.3^1 mg
- dry weight, ΔsidA (A. fumigatus ΔsidA; [6]): 7.1^1 mg
- Growth (mg dry weight) mean ± S.D., ΔsidA (A. fumigatus ΔsidA; [3]): 1.4 ± 1.1 mg dry weight
- dry weight, ΔsidA (A. fumigatus ΔsidA; [4]): 47.4^1 mg
- Growth (mg dry weight) mean ± S.D., ΔsidAR (A. fumigatus ΔsidA^R; [3]): 7.5 ± 0.3 mg dry weight

Compound: CC(=O)N(O)CCC[C@@H]1NC(=O)CNC(=O)[C@H](CO)NC(=O)CNC(=O)[C@H](CCCN(O)C(C)=O)NC(=O)[C@H](CCCN(O)C(C)=O)NC1=O [desferriferricrocin] (cyclo(GSG[Orn(N5-OH,N5-Ac)][Orn(N5-OH,N5-Ac)][Orn(N5-OH,N5-Ac)]))
- Concentration able to remove some iron from holotransferrin (human holotransferrin): 500 µM
- Concentration at which complete absence of holotransferrin was observed (human holotransferrin): 5 mM
- Growth (mg dry weight) mean ± S.D., wild type [1, 5]: 9.7 ± 2.00 mg dry weight
- Restoration of growth of ΔsidA in the presence of human serum (A. fumigatus ΔsidA): restored to wild-type levels
- Growth (mg dry weight) mean ± S.D., ΔsidA (A. fumigatus ΔsidA; [5]): 11.1 ± 1.1 mg dry weight
- Growth (mg dry weight) mean ± S.D., ΔsidAR (A. fumigatus ΔsidA^R; [5]): 11.0 ± 1.2 mg dry weight

Compound: CC(=O)N(O)CCCC1NC(=O)CNC(=O)CNC(=O)CNC(=O)C(CCCN(O)C(C)=O)NC(=O)C(CCCN(O)C(C)=O)NC1=O (stereo not drawn) [desferriferrichrome] (cyclo(GGG[ξOrn(N(OH)Ac)][ξOrn(N(OH)Ac)][ξOrn(N(OH)Ac)]))
- Concentration at which complete absence of holotransferrin was observed (human holotransferrin): 5 mM
